According to publication PMC11006503, “New Tin (IV) and Organotin (IV) Complexes with a Hybrid Thiosemicarbazone/Hydrazone Ligand: Synthesis, Crystal Structure, and Antiproliferative Activity” (Bioinorganic Chemistry and Applications, 2024):
“Also recorded” adds a separate entry of the source. Read-outs that look alike come from different tables or passages of the source. Blank lines part the entries; values can stand above or below the compound they belong to.

What was measured:
Format in all cases: cell-based, human
HeLa = experiment: MTT cell proliferation assay; conditions: 24 h; for IC50: MTT, mean ± SEM
Protocol: (§1) Four cancerous cell lines (human triple negative breast cancer cell line MDA-MB-231, human cervical cancer cell line HeLa, human prostate cancer cell line PC3, and human liver cancer cell line HepG2) and the human normal lung fibroblast cell line, WI-38, were obtained from the central cell repository of National Centre for Cell Science (NCCS), Pune. The cell lines were cultured in a T25 flask with Dulbecco's modified Eagle medium (DMEM), supplemented with 10% foetal bovine serum, nonessential amino acids, 1 mM sodium pyruvate, 2 mM L-glutamine, 100 mg/L streptomycin, […] penicillin, and 50 mg/L gentamycin in a 37°C humidified incubator containing 5% CO2. […] As DMSO has been used to prepare the different concentrations of the compounds, we have added 0.5% DMSO in the control setup. After the incubation period, media was discarded from the 96-well plates and washed with 1 × PBS solution twice. Then, MTT (100 µL; 0.5 mg/mL) was added to each well and incubated in a humidified incubator containing 5% CO2 at 37°C for 4 h. After discarding the supernatant, the purple-colored formazan crystals formed in the wells were dissolved with 100 μL DMSO per well and the absorbance was estimated at 490 nm using a microplate reader. The experiments were repeated three times, and the cell viability was expressed as a percentage of the control experimental setup. […] For all the MTT assays, three fully independent experiments have been performed, and each experiment has been conducted with biological triplicate samples.

HepG2 = experiment: MTT cell proliferation assay; conditions: for IC50: MTT, mean ± SEM
Protocol: as §1

MDA-MB-231 = experiment: MTT cell proliferation assay; conditions: for IC50: MTT, mean ± SEM, read-out: IC50 MDA-MB231
Protocol: as §1

PC3 = experiment: MTT cell proliferation assay; conditions: for IC50: MTT, mean ± SEM
Protocol: as §1

[1] = test system: WI-38 normal lung fibroblast cell line; experiment: MTT cell proliferation assay; conditions: for IC50: normal cell line, MTT, mean ± SEM
Protocol: as §1

MDA-MB-231 cells [2] = experiment: Annexin V-FITC/PI staining apoptosis assay (flow cytometry); conditions: for annexin-V-FITC+/PI− (early apoptotic) and annexin V-FITC+/PI+ (late apoptotic) cell population: control 0.01%
Protocol: Induction of apoptosis was quantified via flow cytometric analysis of control ([…]) and cells treated with complex 3 (0.25 µM, 0.5 µM, and 1 µM) that were stained with annexin V-FITC/PI [50], using the Annexin V-FITC apoptosis detection kit according to the manufacturer's protocol (BD Bioscience). Post treatment cells were harvested with 1 × trypsin and washed in ice 1 × PBS followed by resuspension in 100 µL of 1 × binding buffer solution supplied within the kit. Finally, cells were incubated with 5 μL of annexin V-FITC and 5 μL of PI for 15 min at room temperature in the dark before acquiring data using BD FACSVerse flow cytometer (BD Biosciences, San Jose, CA). Annexin V/FITC positive cells were regarded as apoptotic cells analyzed using Cell Quest software (BD Biosciences).

MDA-MB-231 cells [3] = experiment: Mitochondrial membrane potential by JC1 staining (fluorescence microscopy and flow cytometry); conditions: for cellular population with increase in JC1 green fluorescence intensity (flow cytometry): control 3.93%
Protocol: The changes in mitochondrial membrane permeability were determined by JC1 (molecular probes). MDA-MB-231 cells were treated with compound 3 (0.25 µM, 0.5 µM, and 1 µM) for the indicated time period, harvested, washed twice in 1 × PBS, resuspended in PBS supplemented with JC1 dye (3 µM final concentration), and incubated for 15 min in the dark at 37°C and flow cytometric analysis was immediately performed using a FACSVerse instrument (BD) or images were captured with fluorescent microscope (Leica).

MDA-MB-231 cells [4] = experiment: Cellular ROS measurement using DCFDA (fluorescence microscopy and flow cytometry)
Protocol: To measure the production of intercellular reactive oxygen species (ROS) produced by treatment with complex 3, the DCFDA method was used. MDA-MB-231 cells were seeded in a 6-well plate and treated with complex 3 (0.25 µM, 0.5 µM, and 1 µM) for 24 h using arsenic as a positive control agent and NAC as negative control. Post treatment, the media was discarded and incubated with 10 µM H2DCFDA for 30 min at 37°C. For fluorescence imaging, cells incubated with H2DCFDA were washed, resuspended in 1 × PBS, and directly imaged under a fluorescence microscope (Leica). For flow cytometric analysis, cells were then trypsinized, washed with 1 × PBS, and collected in centrifuge tubes. DCF fluorescence was measured using BD FACSVerse flow cytometer (BD Biosciences) and analyzed using Cell Quest software (BD Biosciences).

MDA-MB-231 cells [5] = experiment: Cell cycle profiling by propidium iodide staining (flow cytometry); conditions: 1.0 µM, 24 h, mean ± SEM
Protocol: MDA-MB-231 cells were seeded at a density of 1 × 10^6 cells/mL in each Petri dish for 24 h. Thereafter, the cells were treated with increasing concentration of complex 3 (0.25 µM, 0.5 µM, and 1 µM) for 24 h and 0.5% DMSO was added in the control setup. Post treatment, cells were harvested into single cell suspension and fixed by 75% ethanol for 24 h. at −20°C. After centrifugation, the cells pellets were resuspended in 1 × PBS followed by RNaseA (20 μM) treatment for 2 h at 37°C. Finally, propidium iodide was added and incubated at room temperature for 20 min. Subsequently, the samples were measured using BD FACSVerse flow cytometer (BD Biosciences, San Jose, CA) and analyzed using BD FACS DIVA software.

Structure (SMILES): N.N.[Cl][Pt][Cl] [Cisplatin, cisplatin, reference compound]
IC50 (HeLa): 3.26 ± 0.23 µM
IC50 (HepG2; 24 h): 11.5 ± 2.06 µM
IC50 (MDA-MB-231; 24 h): 8.25 ± 1.64 µM
IC50 (PC3; 24 h): 5.36 ± 1.24 µM
IC50 ([1]; 24 h): 20.6 ± 1.52 µM
early apoptotic cell population (LR quadrant) (MDA-MB-231 cells [2]; 8 µM, positive control): 44.46%
late apoptotic cell population (UR quadrant) (MDA-MB-231 cells [2]; 8 µM, positive control): 18.52%
JC1 aggregate/JC1 monomer fluorescence intensity ratio (fluorescence microscopy) (MDA-MB-231 cells [3]; 8 µM): 0.25 ± 0.06

IC50 (HeLa; Homo sapiens, HeLa): 1.06 ± 0.21 µM
IC50 (HepG2; Homo sapiens, HepG2, 24 h): 5.14 ± 0.52 µM
IC50 (MDA-MB-231; Homo sapiens, MDA-MB-231, 24 h): 2.42 ± 0.33 µM
IC50 (PC3; Homo sapiens, PC-3, 24 h): 4.86 ± 0.75 µM
Structure (SMILES): CC(=N\NC(=O)c1ccncc1)/C(C)=N/NC(N)=S [L ^ 1 H 2, Diacetyl-2-(Thiosemicarbazone)-3-(Isonicotinichydrazone)]
IC50 ([1]; Homo sapiens, WI-38, 24 h): 10.8 ± 0.96 µM

IC50 (HeLa): 1.49 ± 0.46 µM
IC50 (HepG2; 24 h): 6.27 ± 0.98 µM
IC50 (MDA-MB-231; 24 h): 2.48 ± 0.47 µM
IC50 (PC3; 24 h): 3.49 ± 0.73 µM
Structure (SMILES): CC(=N\NC(=O)c1ccncc1)/C(C)=N/NC(N)=S [[L ^ 1 H 3 ]Cl] [Diacetyl-2-(Thiosemicarbazone)-3-(Isonicotinichydrazonium) Chloride]
IC50 ([1]; 24 h): 14.1 ± 0.48 µM

Structure (SMILES): [As] [arsenic, reference compound]
mean fluorescence intensity (MFI), fold change in comparison with the control (H2DCFDA, flow cytometry) (MDA-MB-231 cells [4]; 1 µM, 24 h): 4.91 ± 0.05 fold
fold increase of green fluorescence intensity (H2DCFDA, fluorescence microscopy) (MDA-MB-231 cells [4]; positive control, concentration not given): 4.28 ± 0.09 fold

Structure (SMILES): CC1=[N+]2N=C(N)[S][Sn-2]23([CH3])([CH3])[O]C(c2ccncc2)=N[N+]3=C1C [complex 1, [SnMe2L^1]n]
IC50 (HeLa): 2.22 ± 0.54 µM
IC50 (HepG2; 24 h): 4.97 ± 0.76 µM
IC50 (MDA-MB-231; 24 h): 3.54 ± 0.34 µM
IC50 (PC3; 24 h): 2.76 ± 0.52 µM
IC50 ([1]; 24 h): 15.6 ± 0.73 µM

Structure (SMILES): CC1=[N+]2N=C(N)[S][Sn-2]23([c]2ccccc2)([c]2ccccc2)[O]C(c2ccncc2)=N[N+]3=C1C [complex 3, [SnPh2L^1]n]
Percentage of cell viability Hela (HeLa; 0.25 µM): 70%
Percentage of cell viability Hela (HeLa; 0.5 µM): 46.24%
Percentage of cell viability Hela (HeLa; 1 µM): 30.21%
Percentage of cell viability Hela (HeLa; 2 µM): 25.19%
Percentage of cell viability Hela (HeLa; 5 µM): 20.16%
Percentage of cell viability HepG2 (HepG2; 0.25 µM, 24 h): 80.36%
Percentage of cell viability HepG2 (HepG2; 0.5 µM, 24 h): 70.36%
Percentage of cell viability HepG2 (HepG2; 1 µM, 24 h): 58.39%
Percentage of cell viability HepG2 (HepG2; 2 µM, 24 h): 45.27%
Percentage of cell viability HepG2 (HepG2; 5 µM, 24 h): 30.68%
IC50 (HepG2; 24 h): 1.59 ± 0.17 µM
Percentage of cell viability MDA-MB 231 (MDA-MB-231; 0.25 µM, 24 h): 65.43%
Percentage of cell viability MDA-MB 231 (MDA-MB-231; 0.5 µM, 24 h): 50.06%
Percentage of cell viability MDA-MB 231 (MDA-MB-231; 1 µM, 24 h): 28.63%
Percentage of cell viability MDA-MB 231 (MDA-MB-231; 2 µM, 24 h): 20.19%
Percentage of cell viability MDA-MB 231 (MDA-MB-231; 5 µM, 24 h): 18.37%
IC50 (MDA-MB-231; 24 h): 0.51 ± 0.13 µM
Percentage of cell viability PC3 (PC3; 0.25 µM, 24 h): 82.17%
Percentage of cell viability PC3 (PC3; 0.5 µM, 24 h): 76.09%
Percentage of cell viability PC3 (PC3; 1 µM, 24 h): 60.16%
Percentage of cell viability PC3 (PC3; 2 µM, 24 h): 48.24%
Percentage of cell viability PC3 (PC3; 5 µM, 24 h): 35.73%
IC50 (PC3; 24 h): 1.97 ± 0.24 µM
Percentage of cell viability WI-38 ([1]; 0.25 µM, 24 h): 98.36%
Percentage of cell viability WI-38 ([1]; 0.5 µM, 24 h): 95.32%
Percentage of cell viability WI-38 ([1]; 1 µM, 24 h): 80.17%
Percentage of cell viability WI-38 ([1]; 2 µM, 24 h): 76.21%
Percentage of cell viability WI-38 ([1]; 5 µM, 24 h): 70.24%
IC50 ([1]; 24 h): 15.7 ± 0.28 µM
G2/M cell population (G2/M arrest) (MDA-MB-231 cells [5]): 56.07%
early apoptotic cell population (LR quadrant) (MDA-MB-231 cells [2]; 0.25 µM, 24 h): 15.99%
late apoptotic cell population (UR quadrant) (MDA-MB-231 cells [2]; 0.25 µM, 24 h): 5.24%
annexin-V-FITC+/PI− (early apoptotic) and annexin V-FITC+/PI+ (late apoptotic) cell population (MDA-MB-231 cells [2]; 0.25 µM, 24 h): 21.23%
early apoptotic cell population (LR quadrant) (MDA-MB-231 cells [2]; 0.5 µM, 24 h): 36.25%
late apoptotic cell population (UR quadrant) (MDA-MB-231 cells [2]; 0.5 µM, 24 h): 21.56%
annexin-V-FITC+/PI− (early apoptotic) and annexin V-FITC+/PI+ (late apoptotic) cell population (MDA-MB-231 cells [2]; 0.5 µM, 24 h): 57.81%
early apoptotic cell population (LR quadrant) (MDA-MB-231 cells [2]; 1 µM, 24 h): 32.32%
late apoptotic cell population (UR quadrant) (MDA-MB-231 cells [2]; 1 µM, 24 h): 34.15%
annexin-V-FITC+/PI− (early apoptotic) and annexin V-FITC+/PI+ (late apoptotic) cell population (MDA-MB-231 cells [2]; 1 µM, 24 h): 66.47%
necrotic cell population zone (MDA-MB-231 cells [2]; 0.25, 0.5 and 1 µM, 24 h): No significant cell population
mean fluorescence intensity (MFI), fold change in comparison with the control (H2DCFDA, flow cytometry) (MDA-MB-231 cells [4]; 0.25 µM, 24 h): 1.47 ± 0.17 fold
mean fluorescence intensity (MFI), fold change in comparison with the control (H2DCFDA, flow cytometry) (MDA-MB-231 cells [4]; 0.5 µM, 24 h): 2.58 ± 0.23 fold
ROS generation / MFI in cells pretreated with N-acetylcysteine (NAC) (MDA-MB-231 cells [4]; 1 µM, 10 mM NAC pretreatment, compared to complex 3 alone): reduce the generation of ROS; also recorded: decrease in the MFI value
fold increase in fluorescence intensity in comparison to control (H2DCFDA, fluorescence microscopy) (MDA-MB-231 cells [4]; 1 µM, 24 h): 3.57 ± 0.08 fold
mean fluorescence intensity (MFI), fold change in comparison with the control (H2DCFDA, flow cytometry) (MDA-MB-231 cells [4]; 1 µM, 24 h): 4.73 ± 0.14 fold
JC1 aggregate/JC1 monomer fluorescence intensity ratio (fluorescence microscopy) (MDA-MB-231 cells [3]; 0.25 µM, 24 h): 1.36 ± 0.78
cellular population with increase in JC1 green fluorescence intensity (flow cytometry) (MDA-MB-231 cells [3]; 0.25 µM, 24 h): 37.47%
cellular population with increase in JC1 green fluorescence intensity (flow cytometry) (MDA-MB-231 cells [3]; 0.5 µM, 24 h): 52.22%
JC1 aggregate/JC1 monomer fluorescence intensity ratio (fluorescence microscopy) (MDA-MB-231 cells [3]; 1 µM, 24 h): 0.27 ± 0.13
cellular population with increase in JC1 green fluorescence intensity (flow cytometry) (MDA-MB-231 cells [3]; 1 µM, 24 h): 74.51%
